According to patent publication US9260400B2, “I-arylpiperazinic ligands of 5-HT7 receptor and use thereof” (UNIVERSITA' DEGLI STUDI DI BARI “ALDO MORO”, priority 2011, dated 2016):

What was measured:
[1] = after 20 minutes following i.p injection; cited from earlier work
[2] = target: T1, human cloned 5-HT7 receptor (Homo sapiens, UniProt P34969); assay: Radioligand binding assay at human cloned 5-HT7 receptors ([3H]-5-CT competition); conditions: read-out: 5-HT7 (pKi) (converted)
T1 construct: expressed in transfected cells
Description: Radioligand Binding Assay At Human Cloned 5-HT7 Receptors
Functionality assays on the 5-HT7 receptor were done according to Jasper et al [Br. J. Pharmacol. 1997, 122, 126.] with minor modifications. The test is a competition assay based on binding of [^3H]-5-CT at human cloned 5-HT7 receptor. In 0.5 mL of incubation buffer (50 mM Tris-HCl, 10 mM MgSO4 and 0.5 mM EDTA, pH 7.4) were suspended 34 μg of membranes, 1.5 nM [^3H]-5-CT, the drugs or reference compound (six to nine concentrations). The samples were incubated for 120 min at 27° C. The incubation was stopped by rapid filtration on Whatman GF/C glass microfiber filters (pre-soaked in 0.3% polyethylenimine for 30 min). The filters were washed with 3×1 mL of ice-cold buffer (50 mM Tris-HCl, pH 7.4). Nonspecific binding was determined in the presence of 10 μM 5-CT. Approximately 90% of specific binding was determined under these conditions.
(§1) Competition binding data were analyzed using the GraphPad Prism Software (GraphPad Software, Inc., San Diego, Calif., USA). The value for the inhibition constant, Ki, was calculated by using the Cheng-Prusoff equation [Anal. Biochem. 1980, 107, 200-239].

[3] = target: T2, Human 5-HT1A serotonin receptors (Homo sapiens, UniProt P08908); assay: Radioligand binding assay at human cloned 5-HT1A receptor ([3H]-8-OH-DPAT); conditions: compound at 10−7M
T2 construct: expressed in transfected cells; host or cells: HEK293-EBNA
T2 sequence (P08908 1-422): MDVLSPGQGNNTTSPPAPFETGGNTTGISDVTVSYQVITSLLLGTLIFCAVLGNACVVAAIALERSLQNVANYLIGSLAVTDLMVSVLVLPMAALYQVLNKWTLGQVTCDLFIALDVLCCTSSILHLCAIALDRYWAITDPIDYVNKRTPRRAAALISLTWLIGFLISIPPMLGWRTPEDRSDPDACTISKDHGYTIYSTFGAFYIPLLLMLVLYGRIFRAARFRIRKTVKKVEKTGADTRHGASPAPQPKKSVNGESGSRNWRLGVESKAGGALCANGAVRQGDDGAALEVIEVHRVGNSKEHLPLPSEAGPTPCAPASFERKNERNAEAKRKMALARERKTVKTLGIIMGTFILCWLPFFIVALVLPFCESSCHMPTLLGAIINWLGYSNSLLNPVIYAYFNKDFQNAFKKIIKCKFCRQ
Description: Radioligand Binding Assay At Human Cloned 5-HT1A Receptor
Human 5-HT1A serotonin receptors stably expressed in HEK293-EBNA cells were radiolabeled with 1.0 nM [^3H]-8-OH-DPAT [J. Biol. Chem. 1989, 264, 14848]. Samples containing 32 μg of membrane protein, different concentrations of each compound ranging from 0.1 nM to 10 μM were incubated in a final volume of 500 μL of 50 mM Tris-HCl pH 7.4, 5 mM MgSO4 for 120 min at […]. After this incubation time, samples were filtered through Whatman GF/C glass microfiber filters pre-soaked in polyethylenimine 0.5% for at least 30 min prior to use. The filters were washed twice with 1 ml of ice-cold buffer (50 mM Tris-HCl, pH 7.4). Nonspecific binding was determined in the presence of 10 μM 5-HT.
as §1

[4] = In vitro metabolic stability using liver S9 fractions; type: in vitro ADME; conditions: 10 μM compound, 1 mg/ml rat liver S9, 30 min at 37° C.
Description: Determination of in vitro Metabolic Stability Using Liver S9 Fractions
Tested compounds (10 μM) were incubated with rat liver S9 fractions (1 mg/ml), liver S9 fractions are subcellular fractions that contain drug-metabolizing enzymes such as cytochromes P450, flavin monooxygenases, and UDP glucuronyl transferases.
The incubation was performed in 100 mM phosphate buffer (pH 7.4) containing 1.3 mM of NADP+, 3.3 mM glucose 6-phosphate and 0.4 U/ml glucose 6-phosphate dehydrogenase, 3.3 mM MgCl2 in a total volume of 1 mL. Incubations were commenced with the addition of glucose 6-phosphate dehygrogenase and carried out for 30 min. at 37° C. The reaction was stopped by adding 1 mL of cooled acetonitrile. The samples were centrifuged at 4600 rpm for 10 min at 4° C. The supernatant was separated and the acetonitrile phase was analyzed by using a reversed-phase HPLC equipped with a Perkin-Elmer series 200 LC pump and a Perkin-Elmer 785A UV/VIS detector. UV signals were monitored and obtained peaks integrated using a personal computer running Perkin-Elmer Turbochrom Software. The column used was a Phenomenex Gemini C-18 (250×4.6 mm, 5 μm particle size). The samples were eluted with ammonium formate (20 mM; pH 6.7) and acetonitrile 80:20 v/v at a flow rate of 1 mL/min and at the appropriate UV wavelength. The sample injection volume was 20 μL.
This assay provides information on the xenobiotic metabolism of the tested compounds; the results obtained are reported in table 1.

T1 sequence (P34969 whole entry): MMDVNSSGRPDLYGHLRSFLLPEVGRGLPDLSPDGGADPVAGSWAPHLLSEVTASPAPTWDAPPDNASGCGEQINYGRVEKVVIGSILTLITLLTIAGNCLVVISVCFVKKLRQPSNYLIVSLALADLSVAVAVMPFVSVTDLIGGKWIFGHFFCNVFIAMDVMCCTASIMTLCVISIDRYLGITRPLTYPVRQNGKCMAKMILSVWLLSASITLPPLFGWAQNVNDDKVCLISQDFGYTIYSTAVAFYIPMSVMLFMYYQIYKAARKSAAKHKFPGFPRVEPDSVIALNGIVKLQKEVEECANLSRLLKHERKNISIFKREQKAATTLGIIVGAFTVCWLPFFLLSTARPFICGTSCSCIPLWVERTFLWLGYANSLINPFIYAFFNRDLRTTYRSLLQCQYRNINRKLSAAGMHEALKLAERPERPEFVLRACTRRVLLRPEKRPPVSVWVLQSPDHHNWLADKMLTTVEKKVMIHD

Row | Structure (SMILES) | plasma and brain concentration [1] | Ki [2] [nM] | 5-HT1A (% displacement of radioligand at 10−7M conc.) [3] [%] | % parent compound after incubation with rat liver S9 fractions [4] [%]
1 | CSc1ccccc1N1CCN(CCCCCC(=O)NC2CCCc3ccccc32)CC1 (stereo not shown) [LP-44] | undetectable | – | – | –
2 | COc1ccc(OCC(O)CN2CCN(c3ncccc3-c3ccncc3)CC2)cc1 (stereo not shown) [Example 5, 1-(4-Methoxyphenoxy)-3-[4-[3-(4-pyridyl)-2-pyridyl]piperazin-1-yl]propan-2-ol] | – | 7.59 | 26 | 82
3 | COc1cccc(OCCN2CCN(c3ncccc3-c3ccccn3)CC2)c1 [Example 15, 1-[2-(3-Methoxyphenoxy)ethyl]4-[3-(2-pyridyl)-2-pyridyl]piperazine] | – | 5.37 | 35 | 78
4 | COc1cccc(C(F)CN2CCN(c3ncccc3-c3ccccn3)CC2)c1 (stereo not shown) [Example 12, 1-[2-Fluoro-2-(3-methoxyphenyl)ethyl]-4-[3-(2-pyridyl)-2-pyridyl)piperazine] | – | 6.92 | 25 | 84
5 | COc1ccc(-c2ccccc2N2CCN(CCCCCC(=O)NCc3ccccn3)CC2)cc1 [Example 21, 4-[2-(4-Methoxyphenyl)phenyl]-N-(2-pyridinylmethyl)-1-piperazinehexanamide] | – | 1.62 | 37 | 55
6 | FCCOc1ccc(OCCN2CCN(c3ncccc3-c3ccccn3)CC2)cc1 [Example 18, 1-[2-[4-(2-Fluoroethoxy)phenoxy]ethyl]-4-[3-(2-pyridyl)-2-pyridyl]piperazine] | – | 20 | 20 | 68
7 | COc1ccc(CNC(=O)CCCCCN2CCN(c3ncccc3-c3ccccn3)CC2)cc1 [Example 24, N-[(4-Methoxyphenyl)methyl]-6-[4-[3-(2-pyridyl)-2-pyridyl]piperazin-1-yl]hexanamide] | – | 5.75 | 31 | 80
8 | COc1ccc(OCC(O)CN2CCN(c3ccccc3-c3ccccc3)CC2)cc1 (stereo not shown) [Example 1, 1-(4-Methoxyphenoxy)-3-[4-(2-biphenyl)piperazin-1-yl] propan-2-ol] | – | 16.6 | 46 | 35
